# Source: patent US6413517B1, “Identification of broadly reactive DR restricted epitopes” (Epimmune, Inc., priority 1997, dated 2002)
# Like-named read-outs stand apart in the source and are kept apart here. No end group written: not given here.
# Experiments:
# DRB1*0101 (DR1) = target: T1, DRB1*0101 (DR1) (Homo sapiens, UniProt P01903+P01911, A100R/D57E/F55L/F60I/F76Y/I96L/L162R/M171V/P40L/Q125E/R42F/V115G/Y59C); assay: biochemical; assay type: binding
# T1 construct: Epstein-Barr virus (EBV) transformed homozygous cell lines were used as sources; endogenous in cells; host or cells: LG2 (EBV-transformed homozygous B cell line)
# DRB1*0401 (DR4w4) = target: T2, DRB1*0401 (DR4w4) (Homo sapiens, UniProt P01903+P01911, A100K/A169T/F76Y/I96L/K127E/L162R/M171V/N62H/P40V/Q125Y/R42H/S133A/S149N/S66Y/V115G/V209L/W38E); assay: biochemical; assay type: binding
# T2 construct: Epstein-Barr virus (EBV) transformed homozygous cell lines were used as sources; endogenous in cells; host or cells: PREISS (EBV-transformed homozygous B cell line)
# DRB1*0701 (DR7) = target: T3, DRB1*0701 (DR7) (Homo sapiens, UniProt P01903+P01911, A100R/A102G/A103Q/D57E/D86V/E43K/F76Y/K127E/L162R/M171V/P40G/Q125H/Q99D/R33Q/R42Y/R54Q/S133A/S66F/T210M/V115G/Y107V/Y59L/Y89S); assay: biochemical; assay type: binding
# T3 construct: Epstein-Barr virus (EBV) transformed homozygous cell lines were used as sources; endogenous in cells; host or cells: PITOUT (EBV-transformed homozygous B cell line)
# DRB1*1501 (DR2w2b) = target: T4, DRB1*1501 (DR2w2b) (Homo sapiens, UniProt P01903+P01911); assay: biochemical; assay type: binding
# T4 construct: expressed in transfected cells; host or cells: transfected fibroblasts L466.1
# DRB5*0101 (DR2w2a) = target: T5, DRB5*0101 (DR2w2a) (Homo sapiens, UniProt P01903+Q30154); assay: biochemical; assay type: binding
# T5 construct: Epstein-Barr virus (EBV) transformed homozygous cell lines were used as sources; endogenous in cells; host or cells: GM3107 (EBV-transformed homozygous B cell line)
# DRB1*0405 (DR4w15) = target: T6, DRB1*0405 (DR4w15) (Homo sapiens, UniProt P01903+P01911, A100R/A169T/D86S/F76Y/I96L/K127E/L162R/M171V/N62H/P40V/Q125Y/R42H/S133A/S149N/S66Y/V115G/V209L/W38E); assay: biochemical; assay type: binding
# T6 construct: Epstein-Barr virus (EBV) transformed homozygous cell lines were used as sources; endogenous in cells; host or cells: KT3 (EBV-transformed homozygous B cell line)
# DRB1*1101 (DR5w11) = target: T7, DRB1*1101 (DR5w11) (Homo sapiens, UniProt P01903+P01911, A100R/A169T/A87E/I96F/K41T/L162R/M171V/P40S/Q125H/Q178H/Q39Y/Q99D/R42S/S66Y/T262R/V115G/W38E); assay: biochemical; assay type: binding
# T7 construct: Epstein-Barr virus (EBV) transformed homozygous cell lines were used as sources; endogenous in cells; host or cells: SWEIG (EBV-transformed homozygous B cell line)
# DRB1*1302 (DR6w19) = target: T8, DRB1*1302 (DR6w19) (Homo sapiens, UniProt P01903+P01911, A100E/A169T/K41T/L162R/M171V/P40S/Q125H/Q178H/Q39Y/Q99D/R42S/S66N/T262R/V115G/W38E/Y61H); assay: biochemical; assay type: binding
# T8 construct: Epstein-Barr virus (EBV) transformed homozygous cell lines were used as sources; the source of Class II molecules the EBV transformed homozygous cell line H0301; endogenous in cells; host or cells: H0301 (EBV-transformed homozygous B cell line)
# DRB1*0802 (DR8w2) = target: T9, DRB1*0802 (DR8w2) (Homo sapiens, UniProt P01903+P01911, A100R/A103L/A169T/F76Y/H45Y/I96F/K41T/L162R/M171V/P40S/Q125H/Q178H/Q39Y/Q99D/R218S/R42G/S66Y/V115G/W38E); assay: biochemical; assay type: binding
# T9 construct: Epstein-Barr virus (EBV) transformed homozygous cell lines were used as sources; endogenous in cells; host or cells: OLL (EBV-transformed homozygous B cell line)
# DRB1*0901 (DR9) = target: T10, DRB1*0901 (DR9) (Homo sapiens, UniProt P01903+P01911, A100R/A103E/D57H/D86V/F55Y/F60I/F76Y/I96F/K127E/L162R/M171V/P40D/Q125H/Q99R/R33Q/R42F/S133A/S66N/T210M/V115G/W38K/Y107V/Y59G/Y89S); assay: biochemical; assay type: binding
# T10 construct: Epstein-Barr virus (EBV) transformed homozygous cell lines were used as sources; endogenous in cells
# DRB1*1201 (DR5w12) = target: T11, DRB1*1201 (DR5w12) (Homo sapiens, UniProt P01903+P01911, A100R/A169T/D57E/D86V/F55L/H45Y/K41T/L162R/M171V/P40S/Q125H/Q178H/Q39Y/Q99D/R42G/S66L/T262R/V114A/V67L/W38E/Y59H/Y61H/Y89S); assay: biochemical; assay type: binding
# T11 construct: Epstein-Barr virus (EBV) transformed homozygous cell lines were used as sources; endogenous in cells; host or cells: Herluf (EBV-transformed homozygous B cell line)
# DRB1*0301 (DR3w17) [1] = target: T12, DRB1*0301 (DR3w17) (Homo sapiens, UniProt P01903+P01911, A100K/A102G/A103R/A169T/F55Y/I96L/K41T/L162R/M171V/P40S/Q125H/Q178H/Q39Y/R42S/S66N/T106N/T262R/W38E/Y61H); settings: read-out: Binding Capacity (IC 50% nM) Other Alleles DR3
# DRB1*0301 (DR3w17) [2] = target: T12, DRB1*0301 (DR3w17); assay: biochemical; settings: Binding Capacity (IC50% nM) DR3
# [3] = Binding Capacity (IC 50% nM) DR1,4,7 DRB1
# [4] = read-out: Binding Capacity (IC 50% nM) DR1,4,7 DR4w4
# [5] = Binding Capacity (IC 50% nM) DR1,4,7 DR7
# [6] = Binding Capacity (IC50% nM) DR2w2a
# [7] = read-out: Binding Capacity (IC 50% nM) Other Alleles DR2w2a
# [8] = read-out: Binding Capacity (IC 50% nM) Other Alleles DR4w15
# [9] = Binding Capacity (IC50% nM) DR5w11
# [10] = read-out: Binding Capacity (IC 50% nM) Other Alleles DR5w11
# [11] = Binding Capacity (IC50% nM) DR8w2
# [12] = read-out: Binding Capacity (IC 50% nM) Other Alleles DR8w2
# [13] = Binding Capacity (IC 50% nM) Other Alleles DR9
# [14] = Binding Capacity (IC50% nM) DR5w12
# [15] = read-out: Binding Capacity (IC 50% nM) Other Alleles DR5w12
# [16] = Binding Capacity (IC50% nM) DR1
# [17] = Binding Capacity (IC50% nM) DR4w4
# [18] = Binding Capacity (IC 50% nM) Other Alleles DR2w2b
# [19] = Binding Capacity (IC50% nM) DR4w15
# [20] = Binding Capacity (IC50% nM) DR6w19
# [21] = read-out: Binding Capacity (IC 50% nM) Other Alleles DR6w19
# [22] = Binding Capacity (IC50% nM) DR9
# T7 sequence (P01903 26-254, other chains not shown): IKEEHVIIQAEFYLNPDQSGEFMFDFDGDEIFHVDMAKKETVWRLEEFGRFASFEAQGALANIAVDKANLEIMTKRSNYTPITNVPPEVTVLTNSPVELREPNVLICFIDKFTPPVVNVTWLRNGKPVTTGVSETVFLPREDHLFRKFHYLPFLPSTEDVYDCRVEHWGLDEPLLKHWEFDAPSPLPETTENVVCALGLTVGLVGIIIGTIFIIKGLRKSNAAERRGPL
Compound,IC50 (DRB1*0101 (DR1); [3]),IC50 (DRB1*0401 (DR4w4); [4]),IC50 (DRB1*0701 (DR7); [5]),IC50 (DRB5*0101 (DR2w2a); [6]),IC50 (DRB5*0101 (DR2w2a); [7]),IC50 (DRB1*0405 (DR4w15); [8]),IC50 (DRB1*1101 (DR5w11); [9]),IC50 (DRB1*1101 (DR5w11); [10]),IC50 (DRB1*0802 (DR8w2); [11]),IC50 (DRB1*0802 (DR8w2); [12]),IC50 (DRB1*0901 (DR9); [13]),IC50 (DRB1*1201 (DR5w12); [14]),IC50 (DRB1*1201 (DR5w12); [15]),IC50 (DRB1*0301 (DR3w17) [1]),IC50 (DRB1*0301 (DR3w17) [2]),IC50 (DRB1*0101 (DR1); [16]),IC50 (DRB1*0401 (DR4w4); [17]),IC50 (DRB1*1501 (DR2w2b); [18]),IC50 (DRB1*0405 (DR4w15); [19]),IC50 (DRB1*1302 (DR6w19); [20]),also measured
CC[C@H](C)[C@H](NC(=O)[C@H](CO)NC(=O)[C@H](CO)NC(=O)[C@H](CC(N)=O)NC(=O)[C@@H](NC(=O)[C@@H](NC(=O)[C@H](CC(N)=O)NC(=O)[C@H](Cc1ccccc1)NC(=O)[C@@H](N)C(C)C)C(C)C)C(C)C)C(=O)NCC(=O)N[C@@H](CC(C)C)C(=O)N[C@H](C(=O)N[C@@H](CCSC)C(=O)N[C@H](C(=O)N[C@@H](CC(C)C)C(=O)O)C(C)C)[C@@H](C)CC [Peptide F107.23],< 1000 nM,> 1000 nM,< 1000 nM,> 10000 nM,> 1000 nM,> 1000 nM,> 10000 nM,> 1000 nM,> 10000 nM,> 1000 nM,< 1000 nM,> 10000 nM,> 1000 nM,> 1000 nM,> 10000 nM,–,–,–,–,–,IC50 (DRB1*1501 (DR2w2b); read-out: Binding Capacity (IC 50% nM) Other Alleles DR2w2b): > 1000 nM; IC50 (DRB1*1302 (DR6w19); Binding Capacity (IC 50% nM) Other Alleles DR6w19): < 1000 nM
GPPTALRSFGFAFGYM [Peptide 1136.29],< 1000 nM,> 1000 nM,< 1000 nM,468 nM,–,–,6250 nM,> 1000 nM,2970 nM,> 1000 nM,< 1000 nM,1000 nM,–,> 1000 nM,> 10000 nM,32 nM,4330 nM,< 1000 nM,745 nM,> 10000 nM,IC50 (DRB1*1501 (DR2w2b); Binding Capacity (IC50% nM) DR2w2b): 1.1 nM; IC50 (DRB5*0101 (DR2w2a); Binding Capacity (IC 50% nM) Other Alleles DR2w2a): < 1000 nM; IC50 (DRB1*0405 (DR4w15); Binding Capacity (IC 50% nM) Other Alleles DR4w15): < 1000 nM; IC50 (DRB1*1302 (DR6w19); [21]): > 1000 nM; IC50 (DRB1*0901 (DR9); [22]): 183 nM; IC50 (DRB1*1201 (DR5w12); Binding Capacity (IC 50% nM) Other Alleles DR5w12): < 1000 nM
LAAIIFLFGPPTALRS [Peptide 1136.28],< 1000 nM,–,–,1480 nM,> 1000 nM,> 1000 nM,–,> 1000 nM,7540 nM,> 1000 nM,–,4480 nM,> 1000 nM,> 1000 nM,> 10000 nM,0.23 nM,849 nM,< 1000 nM,6670 nM,3180 nM,"IC50 (DRB1*0401 (DR4w4); Binding Capacity (IC 50% nM) DR1,4,7 DR4w4): < 1000 nM; IC50 (DRB1*0701 (DR7); Binding Capacity (IC50% nM) DR7): 3620 nM; IC50 (DRB1*0701 (DR7); read-out: Binding Capacity (IC 50% nM) DR1,4,7 DR7): > 1000 nM; IC50 (DRB1*1302 (DR6w19); [21]): > 1000 nM; IC50 (DRB1*0901 (DR9); [22]): > 10000 nM; IC50 (DRB1*0901 (DR9); read-out: Binding Capacity (IC 50% nM) Other Alleles DR9): > 1000 nM"
